Reference: patent US8329706B2, “Oxazolidinone derivatives” (Actelion Pharmaceuticals Ltd., priority 2009, dated 2012)

Tests used:
rat [1] = conditions: rat model; cited from earlier work
rat [2] = conditions: cited from earlier work
rat [3] = conditions: cited from earlier work; remark: listed apart in the source
human orexin-2 receptor = molecular target: T1, human orexin-2 receptor (Homo sapiens, UniProt O43614); assay: FLIPR intracellular calcium assay, orexin receptor antagonistic activity (OX2); format: cell-based; conditions: CHO cells expressing human orexin-2 receptor; agonist 3 nM orexin-A; normalized to on-plate reference; * geomean n = 5, *2 geomean n = 2
T1 construct: expressed in transfected cells; host or cells: CHO cells (G418 selection)
T1 sequence (O43614 1-444): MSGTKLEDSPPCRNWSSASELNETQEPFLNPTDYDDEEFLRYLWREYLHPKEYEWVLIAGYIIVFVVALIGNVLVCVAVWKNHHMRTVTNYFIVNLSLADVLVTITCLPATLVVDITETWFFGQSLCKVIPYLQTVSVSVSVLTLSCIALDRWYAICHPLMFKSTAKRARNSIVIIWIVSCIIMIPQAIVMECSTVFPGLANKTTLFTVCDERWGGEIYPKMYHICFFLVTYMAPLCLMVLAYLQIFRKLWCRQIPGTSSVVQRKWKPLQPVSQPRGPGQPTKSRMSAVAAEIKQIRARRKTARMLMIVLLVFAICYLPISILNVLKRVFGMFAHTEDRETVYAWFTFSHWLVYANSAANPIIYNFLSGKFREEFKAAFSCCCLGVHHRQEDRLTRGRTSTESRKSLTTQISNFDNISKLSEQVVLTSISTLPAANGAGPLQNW
Procedure, shortened: (§1)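 CHO cells expressing human OX1 or OX2 receptor loaded with fluo-4 AM, then antagonist preincubated 10 min before 3 nM orexin-A. FLIPR peak calcium fluorescence compared with agonist-plus-vehicle response. IC50 normalized to an on-plate reference compound.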

human orexin-1 receptor = molecular target: T2, human orexin-1 receptor (Homo sapiens, UniProt O43613); assay: FLIPR intracellular calcium assay, orexin receptor antagonistic activity (OX1); format: cell-based; conditions: CHO cells expressing human orexin-1 receptor; agonist 3 nM orexin-A; normalized to on-plate reference; * geomean n = 5, *2 geomean n = 2
T2 construct: expressed in transfected cells; host or cells: CHO cells (G418 selection)
T2 sequence (O43613 1-425): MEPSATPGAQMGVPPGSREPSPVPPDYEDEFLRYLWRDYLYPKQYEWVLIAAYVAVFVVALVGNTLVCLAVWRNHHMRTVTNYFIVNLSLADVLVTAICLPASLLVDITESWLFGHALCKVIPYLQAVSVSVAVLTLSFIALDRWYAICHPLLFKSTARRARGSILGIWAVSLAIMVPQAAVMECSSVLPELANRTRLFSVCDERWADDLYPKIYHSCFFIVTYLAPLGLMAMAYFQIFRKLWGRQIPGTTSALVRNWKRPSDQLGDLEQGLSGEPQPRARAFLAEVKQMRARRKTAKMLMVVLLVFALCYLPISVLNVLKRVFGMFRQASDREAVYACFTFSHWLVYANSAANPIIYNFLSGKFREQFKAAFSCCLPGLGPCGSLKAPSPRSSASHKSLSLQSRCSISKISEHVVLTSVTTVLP
Procedure, shortened: as §1

Row | SMILES | IC50 (human orexin-2 receptor) [nM] | IC50 (human orexin-1 receptor) [nM] | memory function (rat [1]) | activity in model of post-traumatic stress disorder (rat [2]) | alertness (active wake and locomotion) (rat [3]) | time spent in REM and NREM sleep (rat [3])
1 | CNC(=O)[C@@H](c1ccccc1)N1CCc2cc(OC)c(OC)cc2[C@@H]1CCc1ccc(C(F)(F)F)cc1 [(2R)-2-{(1S)-6,7-dimethoxy-1-[2-(4-trifluoromethyl-phenyl)-ethyl]-3,4-dihydro-1H-isoquinolin-2-yl}-N-methyl-2-phenyl-acetamide] |  |  | enhance memory function | active | decrease alertness | dose-dependently increase the time spent in both REM and NREM sleep
2 | CCOc1ccccc1C1OCC(=O)N1Cc1ccc(OC)cc1 (stereo not shown) [Example 27, 2-(2-Ethoxy-phenyl)-3-(4-methoxy-benzyl)-oxazolidin-4-one] | 353 | > 10000 |  |  |  | 
3 | COc1cccc(OC)c1C1OC(C)(C)C(=O)N1Cc1nc2ccccc2o1 (stereo not shown) [Example 68, 3-Benzooxazol-2-ylmethyl-2-(2,6-dimethoxy-phenyl)-5,5-dimethyl-oxazolidin-4-one] | 508 | 2940 |  |  |  | 
4 | CCOc1ccccc1C1OCC(=O)N1Cc1ccc(F)c(C)c1 (stereo not shown) [Example 8, 2-(2-Ethoxy-phenyl)-3-(4-fluoro-3-methyl-benzyl)-oxazolidin-4-one] | 584 | 9170 |  |  |  | 
5 | COc1cccc(OC)c1C1OC(C)(C)C(=O)N1Cc1ccc(-c2ccccc2)cc1 (stereo not shown) [Example 87, 3-Biphenyl-4-ylmethyl-2-(2,6-dimethoxy-phenyl)-5,5-dimethyl-oxazolidin-4-one] | 1090 | 64 |  |  |  | 
6 | COc1cccc(OC)c1C1OC(C)(C)C(=O)N1Cc1ccc(Oc2ccc(C)nn2)cc1 (stereo not shown) [Example 93, 2-(2,6-Dimethoxy-phenyl)-5,5-dimethyl-3-[4-(6-methyl-pyridazin-3-yloxy)-benzyl]-oxazolidin-4-one] | 8330 | 1200 |  |  |  | 
7 | CCOc1ccccc1C1OCC(=O)N1Cc1cccc(OC)c1 (stereo not shown) [Example 4, 2-(2-Ethoxy-phenyl)-3-(3-methoxy-benzyl)-oxazolidin-4-one] | 705 | > 10000 |  |  |  | 
8 | COc1cccc(OC)c1C1OCC(=O)N1Cc1ccc(F)c(Cl)c1 (stereo not shown) [Example 36, 3-(3-Chloro-4-fluoro-benzyl)-2-(2,6-dimethoxy-phenyl)-oxazolidin-4-one] | 632 | 1340 |  |  |  | 

The remaining compounds from weak to strong by IC50 (human orexin-2 receptor), led by results:

Row | IC50 (human orexin-2 receptor) [nM] | IC50 (human orexin-1 receptor) [nM] | SMILES | memory function (rat [1]) | activity in model of post-traumatic stress disorder (rat [2]) | alertness (active wake and locomotion) (rat [3]) | time spent in REM and NREM sleep (rat [3])
9 | 298 | 6470 | COc1cccc(OC)c1C1OCC(=O)N1Cc1ccc(OC(F)(F)F)cc1 (stereo not shown) [Example 34, 2-(2,6-Dimethoxy-phenyl)-3-(4-trifluoromethoxy-benzyl)-oxazolidin-4-one] |  |  |  | 
10 | 266 | 421 | COc1cccc(OC)c1C1O[C@@H](C)C(=O)N1Cc1ccc2ccccc2c1 (stereo partly drawn) [Example 66, 2-(2,6-Dimethoxy-phenyl)-(S)-5-methyl-3-naphthalen-2-ylmethyl-oxazolidin-4-one] |  |  |  | 
11 | 199 | > 10000 | CCOc1ccccc1C1OCC(=O)N1Cc1ccc(F)cc1 (stereo not shown) [Example 25, 2-(2-Ethoxy-phenyl)-3-(4-fluoro-benzyl)-oxazolidin-4-one] |  |  |  | 
12 | 99 | 1350 | COc1cccc(OC)c1C1OCC(=O)N1Cc1ccc(OC(F)(F)F)c(F)c1 (stereo not shown) [Example 48, 2-(2,6-Dimethoxy-phenyl)-3-(3-fluoro-4-trifluoromethoxy-benzyl)-oxazolidin-4-one] |  |  |  | 
13 | 86 | 581 | CCCOc1ccc(CN2C(=O)[C@@H](C)OC2c2c(OC)cccc2OC)cc1 (stereo partly drawn) [Example 73, 2-(2,6-Dimethoxy-phenyl)-(R)-5-methyl-3-(4-propoxy-benzyl)-oxazolidin-4-one] |  |  |  | 
14 | 69 | 133 | COc1cccc(C)c1C1OC(C)(C)C(=O)N1Cc1ccc(OC(F)(F)F)c(Cl)c1 (stereo not shown) [Example 83, 3-(3-Chloro-4-trifluoromethoxy-benzyl)-2-(2-methoxy-6-methyl-phenyl)-5,5-dimethyl-oxazolidin-4-one] |  |  |  | 
15 | 65 | 47 | COc1cccc(OC)c1C1O[C@H](C)C(=O)N1Cc1ccc2ccccc2c1 (stereo partly drawn) [Example 53, 2-(2,6-Dimethoxy-phenyl)-(R)-5-methyl-3-naphthalen-2-ylmethyl-oxazolidin-4-one] |  |  |  | 
16 | 37 | 204 | COc1cccc(Cl)c1C1OC(C)(C)C(=O)N1Cc1ccc(Oc2ccccc2)cc1 (stereo not shown) [Example 85, 2-(2-Chloro-6-methoxy-phenyl)-5,5-dimethyl-3-(4-phenoxy-benzyl)-oxazolidin-4-one] |  |  |  | 
